Measurements published in patent publication US20150141411A1, “SUBSTITUTED 3,4-DIHYDRO-2H-PYRIDO[1,2-A]PYRAZINE-1,6-DIONE DERIVATIVES USEFUL FOR THE TREATMENT OF (INTER ALIA) ALZHEIMER'S DISEASE” (Janssen Pharmaceuticals, Inc., priority 2012, published 2015).

Experiments:
Aβtotal = assay: In vivo efficacy: brain soluble Aβtotal in non-transgenic rodents (ELISA); conditions: Mus musculus, dose 30 mg/kg oral dosing, brain soluble fraction, animals sacrificed after 4 h, untreated animals (Ctrl) set at 100, read-out: Aβtotal (% vs Ctrl)_Mean
Source text: (§1) To determine whether acute administration of an Aβ42 lowering agent would reduce Aβ42 levels in vivo, non-transgenic rodents, e.g. mice or rats were used. Animals treated with the Aβ42 lowering agent were examined and compared to those untreated or treated with vehicle and brain levels of soluble Aβ42 and total Aβ were quantitated by standard techniques, for example, using ELISA. Treatment periods varied from hours (h) to days and were adjusted based on the results of the Aβ42 lowering once a time course of onset of effect could be established.
(§2) A typical protocol for measuring Aβ42 lowering in vivo is shown but it is only one of many variations that could be used to optimize the levels of detectable Aβ. For example, Aβ42 lowering compounds were formulated in 20% of Captisol® (a sulfobutyl ether of β-cyclodextrin) in water or 20% hydroxypropyl β cyclodextrin. The Aβ42 lowering agents were administered as a single oral dose or by any acceptable route of administration to overnight fasted animals. After 4 h, the animals were sacrificed and Aβ42 levels were analysed.
(§3) Blood was collected by decapitation and exsanguinations in EDTA-treated collection tubes. Blood was centrifuged at 1900 g for 10 minutes (min) at 4° C. and the plasma recovered and flash frozen for later analysis. The brain was removed from the cranium and hindbrain. The cerebellum was removed and the left and right hemisphere were separated. The left hemisphere was stored at −18° C. for quantitative analysis of test compound levels. The right hemisphere was rinsed with phosphate-buffered saline (PBS) buffer and immediately frozen on dry ice and stored at −80° C. until homogenization for biochemical assays.
(§4) Mouse brains from non-transgenic animals were resuspended in 8 volumes of 0.4% DEA (diethylamine)/50 mM NaCl containing protease inhibitors (Roche-11873580001 or 04693159001) per gram of tissue, e.g. for 0.158 g brain, add 1.264 ml of 0.4% DEA. All samples were homogenized in the FastPrep-24 system (MP Biomedicals) using lysing matrix D (MPBio #6913-100) at 6 m/s for 20 seconds. Homogenates were centrifuged at 221.300×g for 50 min. The resulting high speed supernatants were then transferred to fresh eppendorf tubes. Nine parts of supernatant were neutralized with 1 part 0.5 M Tris-HCl pH 6.8 and used to quantify Aβtotal and Aβ42.
(§5) To quantify the amount of Aβtotal and Aβ42 in the soluble fraction of the brain homogenates, Enzyme-Linked-Immunosorbent-Assays were used. Briefly, the standards (a dilution of synthetic Aβ1-40 and Aβ1-42, Bachem) were prepared in 1.5 ml Eppendorf tube in Ultraculture, with final concentrations ranging from 10000 to 0.3 pg/ml. The samples and standards were co-incubated with HRPO-labelled N-terminal antibody for Aβ42 detection and with the biotinylated mid-domain antibody 4G8 for Aβtotal detection. 50 μl of conjugate/sample or conjugate/standards mixtures were then added to the antibody-coated plate (the capture antibodies selectively recognize the C-terminal end of Aβ42, antibody JRF/cAβ42/26, for Aβ42 detection and the N-terminus of Aβ, antibody JRF/rAβ/2, for Aβtotal detection). The plate was allowed to incubate overnight at 4° C. in order to allow formation of the antibody-amyloid complex. Following this incubation and subsequent wash steps the ELISA for Aβ42 quantification was finished by addition of Quanta Blu fluorogenic peroxidase substrate according to the manufacturer's instructions (Pierce Corp., Rockford, Ill.). A reading was performed after 10 to 15 min (excitation 320 nm/emission 420 nm).
For Aβtotal detection, a Streptavidine-Peroxidase-Conjugate was added, followed 60 min later by an additional wash step and addition of Quanta Blu fluorogenic peroxidase substrate according to the manufacturer's instructions (Pierce Corp., Rockford, Ill.). A reading was performed after 10 to 15 min (excitation 320 nm/emission 420 nm). […]

Aβ38 = assay: In vivo efficacy: brain soluble Aβ38 in non-transgenic rodents (ELISA); conditions: Mus musculus, dose 30 mg/kg oral dosing, brain soluble fraction, animals sacrificed after 4 h, untreated animals (Ctrl) set at 100, read-out: Aβ38 (% vs Ctrl)_Mean
Source text: as §1, with “Aβ38 increasing agents” for “Aβ42 lowering agent”, “increase Aβ38” for “reduce Aβ42”, “Aβ38” for “Aβ42”, “Aβ38 increase” for “Aβ42 lowering”
as §2, with “measuring Aβ38 increase” for “measuring Aβ42 lowering”, “example, Aβ38 increasing agents” for “example, Aβ42 lowering compounds”, “hydroxypropyl βcyclodextrin.” for “hydroxypropyl β cyclodextrin.”, “The Aβ38 increasing” for “The Aβ42 lowering”, “and Aβ38” for “and Aβ42”
as §3
as §4, with “Aβ total” for “Aβtotal”, “Aβ38.” for “Aβ42.”
as §5, with “Aβ38” for “Aβ42”, “Aβ1-38, ANASPEC)” for “Aβ1-42, Bachem)”, “Aβ38,” for “Aβ42,”, “J&JPRD/Aβ38/5,” for “JRF/cAβ42/26,”
In this model a Aβ38 increase compared to untreated animals would be advantageous, in particular a Aβ38 increase with at least 10%, more in particular a Aβ38 increase with at least 20%.
The results are shown in Table 4 (dose 30 mg/kg oral dosing) (value for untreated animals as control (Ctrl) was set at 100): […]

SMILES	response vs control in vivo at 30 mg/kg (Aβtotal) [%]	response vs control in vivo at 30 mg/kg (Aβ38) [%]
Cc1cn(-c2ccc3n(c2=O)CCN(C(C)c2cccc(Cl)c2Cl)C3=O)cn1 (single isomer, unassigned) [10a]	118	85
CCC1Cn2c(ccc(-n3cnc(C)c3)c2=O)C(=O)N1Cc1cc(C(F)(F)F)cc(C(F)(F)F)c1.Cl (stereo not drawn) [compound 1]	89	103
Cc1cn(-c2ccc3n(c2=O)C[C@@H](C)N(Cc2ccc(Cl)c(Cl)c2)C3=O)cn1 [compound 2]	100	129
Cc1cn(-c2ccc3n(c2=O)CC(C)N(Cc2cc(C(F)(F)F)cc(C(F)(F)F)c2)C3=O)cn1 (stereo not drawn) [compound 3]	98	137
Cc1cn(-c2ccc3n(c2=O)CCN(Cc2cccc(-c4ccccc4)c2)C3=O)cn1 [compound 5]	87	110
Cc1cn(-c2ccc3n(c2=O)CC(C)N(Cc2cc(OCC4CC4)cc(C(F)(F)F)c2)C3=O)cn1.Cl (stereo not drawn) [compound 6]	102	129
CCc1cn(-c2ccc3n(c2=O)CC(C)N(Cc2cc(C(F)(F)F)cc(C(F)(F)F)c2)C3=O)cn1.Cl (stereo not drawn) [compound 7]	94	80
Cc1cn(-c2ccc3n(c2=O)CCN(Cc2ccccc2C)C3=O)cn1 [compound 22]	92	105
Cc1cn(-c2ccc3n(c2=O)C[C@@H](C)N(Cc2cccc(C(C)(C)C)c2)C3=O)cn1 [compound 23]	122	132
Cc1cn(-c2ccc3n(c2=O)C[C@@H](C)N(Cc2ccc(C(F)(F)F)c(C(F)(F)F)c2)C3=O)cn1 [compound 46]	87	62
Cc1cn(-c2ccc3n(c2=O)C[C@@H](C)N(CCc2cc(C(F)(F)F)cc(C(F)(F)F)c2)C3=O)cn1 [compound 50]	91	110
Cc1cc(CN2C(=O)c3ccc(-n4cnc(C)c4)c(=O)n3C[C@H]2C)cc(C(F)(F)F)c1 [compound 59]	126	126
Cc1cn(-c2ccc3n(c2=O)C[C@@H](C)N(Cc2ccc(Cl)c(C(F)(F)F)c2)C3=O)cn1 [compound 62]	98	160
Cc1cn(-c2ccc3n(c2=O)C[C@@H](C)N(Cc2cc(Cl)cc(C(F)(F)F)c2)C3=O)cn1 [compound 63]	124	133
Cc1cn(-c2ccc3n(c2=O)CCN(Cc2ccc(Cl)c(C(F)(F)F)c2)C3=O)cn1 [compound 65]	114	132
Cc1cn(-c2ccc3n(c2=O)C[C@@H](C)N(Cc2cc(N4CCC(C)CC4)ccc2Cl)C3=O)cn1 [compound 80]	119	118
Cc1cn(-c2ccc3n(c2=O)C[C@@H](C)N(Cc2cc(N4CCCC4)ccc2Cl)C3=O)cn1 [compound 82]	125	120
Cc1cn(-c2ccc3n(c2=O)CCN(Cc2ccc(C)c(N4CCCCC4)c2)C3=O)cn1 [compound 99]	113	92
